Experiments:
[1] = Clinical chemistry: plasma ALT and creatinine; settings: mean ± SEM
Description: Plasma samples were collected at 6, 13, 20 and 27 days after the gene transfer and when the mice were sacrificed. Alanine aminotransferase (ALT) and creatinine (Crea) were monitored using routine clinical chemistry assays at Kuopio University Hospital Central Laboratory. Enzyme-linked immunosorbent assays (Quantikine; R&D Systems, Minneapolis, Minn.) were used to detect the presence of human sVEGFRs in plasma samples.
Safety was judged by the assessment of the histological samples of liver, spleen, kidneys and lungs as well as by the analysis of plasma ALT and Crea levels.

[2] = system: intratumoral microvessels of SKOV-3m tumors; test: Microvessel and lymphatic vessel measurements in tumors (CD34, LYVE-1 immunostaining); assay type: in vivo, Balb/cA-nu female nude mice; settings: result in words
Description: Photographs of histological sections were taken and processed using an Olympus AX70 microscope (Olympus Optical, Japan), and analySIS (Soft Imaging System, GmbH, Germany) and PhotoShop (Adobe) softwares. Microvessel density (MVD) and total microvascular area (%) of the tumors (TVA) were measured from CD34-immunostained sections using analySIS software at 100× magnification in a blinded manner (FIG. 3b). Six to ten different fields which represented maximum microvessel density areas were selected from each tumor. Necrotic areas were avoided. In addition, the total number of LYVE-1 positive lymphatic vessels per section was counted. Means±SEM of the measurements are reported.

N.N.O=C([O-])C1(C(=O)[O-])CCC1.[Pt+2] [Carboplatin]
ALT ([1]; Day 6 after treatment): 10.0 ± 1 U/l
Crea ([1]; Day 6 after treatment): 14.4 ± 3 um/l
ALT ([1]; Day 13 after treatment): 399 ± 209 U/l
Crea ([1]; Day 13 after treatment): 4.9 ± 2 um/l

Bevacizumab
effect on angiogenesis by microvessel measurements [2]: did not have any effect
ALT ([1]; Day 6 after treatment): 12.9 ± 3 U/l
Crea ([1]; Day 6 after treatment): 7.4 ± 1 um/l
ALT ([1]; Day 13 after treatment): 56.3 ± 22 U/l
Crea ([1]; Day 13 after treatment): 12.4 ± 4 um/l

Reference: patent US20140057851A1, “Anti-Angiogenic Gene Therapy With Soluble VEGF Receptors -1, -2 and -3 Together With Paclitaxel Prolongs Survival Of Mice With Human Ovarian Carcinoma” (WKD Holding Oy, priority 2012, published 2014)
